Values after ≈ are worked out from the molar mass of the structure shown. Values joined by “and” are separate entries in the source; they are usually repeats but may differ in a detail not shown here. Identical values can stand only once. Like-named read-outs stand apart in the source and are kept apart here.
Columns and labels:
[1] = test system: Mycobacterium tuberculosis H37Ra; test: MIC determination from adjusted liquid culture, serial dilution; format: cell-based; details: ATCC 25177 / H37Ra, strain ATCC25177, Middlebrook 7H9 + 10 % ADC, read after 3-14 days
Method: An M. tuberculosis H37Ra (ATCC25177) liquid culture (5 mL, Middlebrook 7H9 broth base + 10 % ADC supplement) was inoculated from original stock (-80°C). After two to five days of shaking at 37°C, an OD600 (optical density at λ = 600 nm) of approximately 1 was observed. […] Plates were covered with plastic foil and a lid. MIC values were determined by visual inspection or by plate reader at 600 nm after 3-14 days (pre-tempered at 37°C with plastic foil, lid removed). Table 1: The MIC values in Table 1 are given in µg/mL and in nmol/mL.

Staphylococcus aureus = test: MIC determination by broth dilution (CLSI); details: ATCC29213
Method: (§1) The strains of Bacillus subtilis and Staphylococcus aureus were grown overnight at 37 °C on MH II agar plates. (BD™ BBL™ Mueller Hinton II Agar, BD Diagnostics). MIC values were determined by broth dilution method according to the recommendations of the Clinical and Laboratory Standards Institute (CLSI; U.S.A.). The inoculum size was about 7.5 x 10^5 colony forming units/well. The compounds were diluted in H2O from 1.0 mg/mL stock solutions in methanol/H2O 1/1 in a 2-fold dilution series. The microtiter plates were incubated at 37 °C overnight.

Bacillus subtilis = test: MIC determination by broth dilution (CLSI); details: DSM3256
Method: as §1

[2] = Determination of aqueous solubility (UHPLC, caffeine internal standard); format: physicochemical; details: for weight-% of isomer (transacylated regioisomer): five hours at room temperature, equal absorption of both regioisomers assumed; for solubility at 5 h: thermodynamic from solid
Method: A standard stock solution of each analyte in MeOH at a concentration of 1.0 mg/mL was prepared. All analytes were completely soluble in MeOH. A standard stock solution of caffeine for use as internal standard (IS) in MeOH was prepared at a concentration of 1 mg/mL. These stock solutions were further diluted with MeOH to calibration standard samples at concentrations of 50, 100, 200, 300, 400, 500 µg/mL of analyte with each sample containing 50 µg/mL of caffeine as IS. These samples were analyzed by UHPLC [Kinetex® EVO C18; 1.7 µm; 100 Å, 50 mm x 2.1 mm; Phenomenex; solvent A: H2O + 0.1 % HCOOH, solvent B: MeCN + 0.1 % HCOOH; 0.4 mL/min; 1.0 µL injection volume, LC time program (min - % B): 0.50 min - 5 %, 3.50 min - 95 %, 3.55 min - 100 %; UV detection at λ = 270 nm]. The peak area of the analyte signal was divided by the peak area of the IS. This peak ratio was plotted against the analyte's concentration to obtain a linear equation.
For reproducibility reasons, water solubility of the fidaxomicin derivatives was quantified in a pH = 7 phosphate buffered aqueous solution (Acros, CAS 7558-79-4). A stock solution of caffeine in phosphate buffer at a concentration of 1.0 mg/mL was prepared and diluted to a concentration of 50 µg/mL. To 1.0 mL of this caffeine solution, the analyte was added as a solid until a saturated solution was obtained. This solution was stirred for five hours at room temperature. The mixture was filtered over a 0.22 µm syringe filter and the obtained solution was analyzed by UHPLC. The concentration was then calculated from the linear equation obtained from the calibration.
With most samples of fidaxomicin derivatives, two peaks for the analyte were detected, viz. one for the original substance and one for its regioisomer formed by transacylation of the isobutyric acid ester. In the following table, the total solubility of each analyte is given with the percentage of isomerization added in parentheses (weight-% of transacylated isomer), assuming that both regioisomers feature approximately the same absorption characteristics. Table 2: Aqueous solubility of fidaxomicin derivatives

[3] = pH = 7 phosphate buffered aqueous solution

## CCOC(=O)COc1c(Cl)c(O)c(C(=O)O[C@H]2[C@H](O)[C@H](OC)[C@H](OC/C3=C\C=C\C[C@H](O)/C(C)=C/[C@H](CC)[C@@H](O[C@@H]4OC(C)(C)[C@@H](OC(=O)C(C)C)[C@H](O)[C@@H]4O)/C(C)=C/C(C)=C/C[C@@H]([C@@H](C)O)OC3=O)O[C@@H]2C)c(CC)c1Cl [Compound 5a, Fidaxomicin Ethylacetate]
[1]
  MIC: 2 µg/mL to 8 µg/mL and 1.8 µM to 7 µM
Staphylococcus aureus
  MIC: 16 µg/mL and 14 µM
Bacillus subtilis
  MIC: 32 µg/mL and 28 µM

## CCOC(=O)COc1c(Cl)c(CC)c(C(=O)O[C@H]2[C@H](O)[C@H](OC)[C@H](OC/C3=C\C=C\C[C@H](O)/C(C)=C/[C@H](CC)[C@@H](O[C@@H]4OC(C)(C)[C@@H](OC(=O)C(C)C)[C@H](O)[C@@H]4O)/C(C)=C/C(C)=C/C[C@@H]([C@@H](C)O)OC3=O)O[C@@H]2C)c(OCC(=O)OCC)c1Cl [Compound 5b, Fidaxomicin Bis(ethylacetate)]
[1]
  MIC: 1 µg/mL to 4 µg/mL and 0.8 µM to 3.3 µM
Staphylococcus aureus
  MIC: 32 µg/mL to 64 µg/mL and 26 µM to 52 µM
Bacillus subtilis
  MIC: 8 µg/mL to 16 µg/mL and 6.5 µM to 13 µM

## C=CCOC(=O)N1CCN(C(=O)COc2c(Cl)c(O)c(C(=O)O[C@H]3[C@H](O)[C@H](OC)[C@H](OC/C4=C\C=C\C[C@H](O)/C(C)=C/[C@H](CC)[C@@H](O[C@@H]5OC(C)(C)[C@@H](OC(=O)C(C)C)[C@H](O)[C@@H]5O)/C(C)=C/C(C)=C/C[C@@H]([C@@H](C)O)OC4=O)O[C@@H]3C)c(CC)c2Cl)CC1 [Compound 7a, Fidaxomicin Piperazine with alloc Protecting Group]
Staphylococcus aureus
  MIC: 16 µg/mL to 32 µg/mL and 12.6 µM to 25.2 µM
Bacillus subtilis
  MIC: > 64 µg/mL and > 50.5 µM

## CCc1c(Cl)c(OCC(=O)N2CCC(O)CC2)c(Cl)c(O)c1C(=O)O[C@H]1[C@H](O)[C@H](OC)[C@H](OC/C2=C\C=C\C[C@H](O)/C(C)=C/[C@H](CC)[C@@H](O[C@@H]3OC(C)(C)[C@@H](OC(=O)C(C)C)[C@H](O)[C@@H]3O)/C(C)=C/C(C)=C/C[C@@H]([C@@H](C)O)OC2=O)O[C@@H]1C [Compound 10a]
[2]; [3]
  weight-% of isomer (transacylated regioisomer): 7 weight-%
[2]; phosphate buffer, aqueous buffer, pH = 7 phosphate buffered aqueous solution, stirred five hours at room temperature, 0.22 µm filter, read-out: Conc. (aqueous solubility, total of both regioisomers)
  solubility at 5 h: 180 µg/mL (≈ 150 µM)

## CCc1c(Cl)c(OCC(=O)N2CCN(c3cc4c(cc3F)c(=O)c(C(=O)O)cn4C3CC3)CC2)c(Cl)c(O)c1C(=O)O[C@H]1[C@H](O)[C@H](OC)[C@H](OC/C2=C\C=C\C[C@H](O)/C(C)=C/[C@H](CC)[C@@H](O[C@@H]3OC(C)(C)[C@@H](OC(=O)C(C)C)[C@H](O)[C@@H]3O)/C(C)=C/C(C)=C/C[C@@H]([C@@H](C)O)OC2=O)O[C@@H]1C [Compound 11a, Fidaxomicin-Ciprofloxacin Hybrid]
[1]
  MIC: 16 µg/mL to 64 µg/mL and 11.2 µM to 44.8 µM
Staphylococcus aureus
  MIC: > 64 µg/mL and > 44.8 µM

## CCc1c(Cl)c(O)c(Cl)c(O)c1C(=O)O[C@H]1[C@H](O)[C@H](OC)[C@H](OCC2=CC=CC[C@H](O)C(C)=C[C@H](CC)[C@@H](O[C@@H]3OC(C)(C)[C@@H](OC(=O)C(C)C)[C@H](O)[C@@H]3O)C(C)=CC(C)=CC[C@@H]([C@@H](C)O)OC2=O)O[C@@H]1C [Fidaxomicin, 3-(((6-Deoxy-4-O-(3,5-dichloro-2-ethyl-4,6-dihydroxybenzoyl)-2-O-methyl-β-D-mannopyranosyl)oxy)-methyl)-12(R)-[(6-deoxy-5-C-methyl-4-O-(2-methyl-1-oxopropyl)-β-D-lyxo-hexopyranosyl)oxy]-11(S)-ethyl-8(S)-hydroxy-18(S)-(1(R)-hydroxyethyl)-9,13,15-trimethyloxacyclooctadeca-3,5,9,13,15-pentaene-2-one, reference compound]
[1]
  MIC: 4 µg/mL and 3.8 µM
[2]; pH 7, aqueous buffer
  solubility at 5 h: 84 µg/mL (≈ 79.4 µM)
[2]; [3]
  weight-% of isomer (transacylated regioisomer): 9 weight-%
Staphylococcus aureus
  MIC: 8 µg/mL to 16 µg/mL and 7.6 µM to 15.1 µM
Bacillus subtilis
  MIC: 8 µg/mL to 16 µg/mL and 7.6 µM to 15.1 µM
